From ChEMBL document CHEMBL3879905, “Methods of using macrocyclic modulators of the ghrelin receptor” (2013) come the findings set out here.

In data set [1] the test system is Rattus norvegicus. Description: Induction of gastric emptying of solid meal in Wistar rat gastroparesis model at 20 ug/kg, iv administered immediately post phenol red containing methylcellulose meal intake measured after 15 mins by colorimetric method relative to vehicle-treated control. It is filed as functional, Stomach.
Data set [2] relates to Rattus norvegicus. As to the kind of experiment: Gastrokinetic activity in Wistar rat gastroparesis model at 20 ug/kg, iv administered immediately post phenol red containing methylcellulose meal intake measured after 15 mins by colorimetric method relative to vehicle-treated control. It is filed as functional, organism-based.
The subject of data set [3] is Rattus norvegicus. Description: Induction of gastric emptying of solid meal in Wistar rat gastroparesis model at 100 ug/kg, iv administered immediately post phenol red containing methylcellulose meal intake measured after 15 mins by colorimetric method relative to vehicle-treated control. Type of data set: functional, Stomach.
Data set [4] is described as follows: Metabolic stability in human plasma assessed as compound recovery in presence of PBS at 2 hrs by LC-MS analysis. To be noted: read-out: Drug recovery. It is filed as ADME, cell-free.
The target of the next data set is Cytochrome P450 3A4 (Homo sapiens, UniProt P08684). Description: Inhibition of human CYP3A4 at 0.0457 to 100 uM. It is filed as ADME.
For data set [5], the system named is Rattus norvegicus. As to the kind of experiment: Induction of gastric emptying of solid meal in Wistar rat gastroparesis model at 5 to 50 ug/kg, iv administered immediately post methylcellulose meal containing phenol red intake measured after 15 mins by colorimetric method. Type of data set: functional, organism-based. To be noted: Stomach.
The subject of data set [6] is Rattus norvegicus. Description: Effect on pulsatile growth hormone release in plasma of free moving Sprague-Dawley rat at 5 ug/kg, iv administered at 1100 and 1300 […] during 6 hrs of sampling period measured every 15 mins over 6 hrs of sampling period by radioimmunoassay relative to vehicle-treated control. It is filed as functional, organism-based.
Data set [7] deals with Rattus norvegicus. Description: Induction of gastric emptying of solid meal in Wistar rat gastroparesis model at 10 mg/kg, iv administered immediately post phenol red containing methylcellulose meal intake measured after 15 mins by colorimetric method relative to vehicle-treated control. It is filed as functional, Stomach.
Data set [8] deals with Rattus norvegicus. As to the kind of experiment: Gastrokinetic activity in Wistar rat gastroparesis model at 10 mg/kg, iv administered immediately post phenol red containing methylcellulose meal intake measured after 15 mins by colorimetric method relative to vehicle-treated control. Type of data set: functional, organism-based.

Molecules are shown by their SMILES. Active and inactive are the calls of the source. The calls are words filed in the database; no cut-off is given here.

Sequence of Cytochrome P450 3A4 (P08684 whole entry): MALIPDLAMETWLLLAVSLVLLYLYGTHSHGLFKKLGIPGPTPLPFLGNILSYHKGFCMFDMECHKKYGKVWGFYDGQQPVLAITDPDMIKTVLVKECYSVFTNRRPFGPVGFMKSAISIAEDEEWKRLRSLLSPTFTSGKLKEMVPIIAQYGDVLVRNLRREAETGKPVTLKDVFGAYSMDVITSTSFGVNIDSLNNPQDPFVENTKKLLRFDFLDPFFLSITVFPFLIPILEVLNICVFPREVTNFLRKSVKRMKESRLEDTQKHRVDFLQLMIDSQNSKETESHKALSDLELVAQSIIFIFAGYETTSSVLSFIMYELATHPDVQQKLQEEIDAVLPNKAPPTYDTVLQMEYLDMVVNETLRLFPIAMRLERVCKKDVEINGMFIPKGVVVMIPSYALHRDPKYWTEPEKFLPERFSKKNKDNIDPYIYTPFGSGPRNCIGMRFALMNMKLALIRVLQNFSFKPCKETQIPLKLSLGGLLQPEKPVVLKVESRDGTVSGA

`C[C@H](NC(=O)[C@@H](Cc1c[nH]c2ccccc12)NC(=O)[C@@H](N)Cc1cnc[nH]1)C(=O)N[C@H](Cc1c[nH]c2ccccc12)C(=O)N[C@@H](Cc1ccccc1)C(=O)N[C@@H](CCCCN)C(N)=O` had an Activity in the data set with Rattus norvegicus [1] of 40%. In addition, in the data set with Rattus norvegicus [2], the result was Active.

As to `C[C@@H]1CN[C@@H](C2CC2)C(=O)N(C)[C@H](C)C(=O)N[C@H](Cc2ccc(F)cc2)C(=O)NCCCc2ccccc2O1` [ULIMORELIN], the Activity with Rattus norvegicus [3] is reported as 30 - 39%. In [4], the remaining at 2 h is 99%. Also, the “inhibition (INH)” value on Cytochrome P450 3A4 is listed as “Active”.

As for `CCCCCCCC(=O)OC[C@H](NC(=O)[C@H](CO)NC(=O)CN)C(=O)N[C@@H](Cc1ccccc1)C(=O)N[C@@H](CC(C)C)C(=O)N[C@@H](CO)C(=O)N1CCC[C@H]1C(=O)N[C@@H](CCC(=O)O)C(=O)N[C@@H](Cc1cnc[nH]1)C(=O)N[C@@H](CCC(N)=O)C(=O)N[C@@H](CCCNC(=N)N)C(=O)N[C@H](C(=O)N[C@@H](CCC(N)=O)C(=O)N[C@@H](CCC(N)=O)C(=O)N[C@@H](CCCNC(=N)N)C(=O)N[C@@H](CCCCN)C(=O)N[C@@H](CCC(=O)O)C(=O)N[C@@H](CO)C(=O)N[C@@H](CCCCN)C(=O)N[C@@H](CCCCN)C(=O)N1CCC[C@H]1C(=O)N1CCC[C@H]1C(=O)N[C@@H](C)C(=O)N[C@@H](CCCCN)C(=O)N[C@@H](CC(C)C)C(=O)N[C@@H](CCC(N)=O)C(=O)N1CCC[C@H]1C(=O)N[C@@H](CCCNC(=N)N)C(=O)O)C(C)C`, the outcome with Rattus norvegicus [5] and with Rattus norvegicus [6] was Active.

The compound `CCN(CC)CCNC(=O)c1cc(Cl)c(N)cc1OC.Cl` gave an Activity in the data set with Rattus norvegicus [7] of 41%. The outcome in the data set with Rattus norvegicus [8] was Active.
